Laboratory results from patent US11083724B2, “Rimegepant for CGRP related disorders” (Biohaven Pharmaceutical Holding Company Ltd., priority 2018, dated 2021).

Tested on: subjects with Acute Migraines
Test: Study 303 (BHV3000-303, NCT03461757): Phase 3 double-blind placebo-controlled trial, rimegepant 75 mg ODT, acute treatment of migraine
Assay type: in vivo, human
Experimental: Clinical Trial—BHV3000-303: Phase 3: Double-Blind, Randomized, Placebo-Controlled, Safety and Efficacy Trial of BHV-3000 (Rimegepant) Orally Discintegrating Tablet (ODT) for the Acute Treatment of Migraine (ClinicalTrials.gov Identifier: NCT03461757) A phase 3 clinical study was conducted with 1812 participants, as follows. The purpose of this study is to compare the efficacy of BHV-3000 (rimegepant ODT) versus placebo in subjects with Acute Migraines. Study Design • Study Type: Interventional (Clinical Trial) • Actual Enrollment: 1812 participants • Allocation: Randomized • Intervention Model: Parallel Assignment • Masking: Triple (Participant, Care Provider, Investigator) • Primary Purpose: Treatment • Official Title: BHV3000-303: Phase 3, Double-Blind, Randomized, Placebo Controlled, Safety and Efficacy Trial of BHV-3000 (Rimegepant) Orally Disintegrating Tablet (ODT) for the Acute Treatment of Migraine • Actual Study Start Date: Feb. 27, 2018 • Actual Primary Completion Date: Oct. 8, 2018 • Actual Study Completion Date: Oct. 15, 2018 Arms and Interventions Outcome Measures Primary Outcome Measures: 1. Pain freedom of rimegepant compared with placebo in the acute treatment of migraine will be measured using the number of evaluable subjects that report no pain at 2 hours post-dose. [Time Frame: Two hours post dose] Pain will be measured on a 4 point Likert scale (0=none, 1=mild, 2=moderate, 3=severe) 2. Freedom from the most bothersome symptom (MBS) of rimegepant compared with placebo will be measured using the number of evaluable subjects that report the absence of their MBS at 2 hours post-dose. [Time Frame: Two hours post dose] The MBS (nausea, phonophobia or photophobia) will measured using a binary scale (0=absent, 1=present). Secondary Outcome Measures: 1. To measure rimegepant compared to placebo on Pain Relief, at 2 hours post-dose, that report a pain level of moderate or severe at baseline and then report a pain level of none or mild. [Time Frame: 2 hours post-dose] Pain Relief as measured by a 4 point numeric rating scale (None, Mild, Moderate, Severe) 2. Functional disability scale [Time Frame: 2 hour post-dose] Subjects self-report “normal” on the functional disability scale 3. […] [Time Frame: 2 hours-24 hours post-dose] Sustained Pain Relief as measured by a 4 point numeric rating scale (None, Mild, Moderate, Severe) 4. […] [Time Frame: 2 to 24 hours post dose] Most bothersome symptom 5. To measure rimegepant compared to placebo on the probability of requiring rescue medication will be assessed using the number of subjects that take rescue medication within […] administration of study medication (BHV3000 or placebo). [Time Frame: up to 24 hours post-dose] Requiring Rescue Medication 6. Sustained ability to function at a normal level as measured by the Functional disability scale [Time Frame: 2 to 24 hours post dose] Subjects self-report “normal” on the functional disability scale 7. […] [Time Frame: 2 hours-48 hours post-dose] Sustained Pain Relief as measured by a 4 point numeric rating scale (None, Mild, Moderate, Severe) 8. Rimegepant compared to placebo on pain freedom from most bothersome symptom from 2-48 hours post dose. [Time Frame: 2 to 48 hours post dose] Most bothersome symptom 9. Sustained ability to function at a normal level as measured by the Functional disability scale [Time Frame: 2 to 48 hours post dose] Subjects self-report “normal” on the functional disability scale 10. Rimegepant compared to placebo by tabulating the number of subjects that report the absence of photophobia at 2 hours post-dose in the subset of subjects that reported the presence of photophobia at headache baseline [Time Frame: 2 hours post-dose] Freedom from Photophobia 11. Functional disability scale [Time Frame: 90 minutes post dose] Subjects self-report “normal” on the functional disability scale 12. […] [Time Frame: 90 minutes post dose] Pain Relief as measured by a 4 point numeric rating scale (None, Mild, Moderate, Severe) 13. […]

[1] = Study 303, n = 669, exploratory
[2] = Study 303, single 75 mg ODT, N = 669

N[C@@H]1c2cccnc2[C@H](OC(=O)N2CCC(n3c(=O)[nH]c4ncccc43)CC2)CC[C@H]1c1cccc(F)c1F [Rimegepant, [(5S,6S,9R)-5-amino-6-(2,3-difluorophenyl)-6,7,8,9-tetrahydro-5H-cyclohepta[b]pyridin-9-yl] 4-(2-oxo-3H-imidazo[4,5-b]pyridin-1-yl)piperidine-1-carboxylate]
Freedom from MBS at 2 hours, Difference (rimegepant minus placebo) (Study 303): 8.3% | Pain Freedom at 2 hours, Difference (rimegepant minus placebo) (Study 303): 10.3% | incidence of any single adverse event (AE) in the rimegepant group (Study 303): ≤ 1.6% | patients with LFTs >3×ULN (Study 303): one | Sustained Pain Relief 3 to 48 hrs (Study 303, n = 669): 49.9% | Sustained Pain Relief 3 to 24 hrs [1]: 56.4% | Sustained Pain Relief 4 to 24 hrs [1]: 61.7% | Sustained Pain Relief 4 to 48 hrs [1]: 54.7% | Pain Relief @ 2 hours (Study 303, secondary 1): 59.3% | Functional Disability at 2 hours (Study 303, secondary 2, self-report normal): 38.1% | SP Relief (Sustained Pain Relief) 2 to 24 hours (Study 303, secondary 3): 47.8% | MBS 2 to 24 (Study 303, secondary 4, sustained freedom from MBS): 27.1% | Prob of Rescue Meds in 24 hours (Study 303, secondary 5): 14.2% | Functional Disability 2 to 24 (Study 303, secondary 6): 29.6% | SP Relief (Sustained Pain Relief) 2 to 48 hours (Study 303, secondary 7): 42.2% | MBS 2 to 48 (Study 303, secondary 8): 23.2% | Functional Disability 2 to 48 (Study 303, secondary 9): 26.0% | Photophobia @ 2 hours (Study 303, secondary 10, freedom from photophobia): 33.4% | Functional Disabilty @ 90 minutes (Study 303, secondary 11): 30.2% | Pain Relief @ 90 minutes (Study 303, secondary 12): 49.6% | SP Freedom 2 to 24 hours (Study 303, secondary 13): 15.7% | MBS Freedom at 90 minutes (Study 303, secondary 14): 27.4% | Pain Freedom @ 90 minutes (Study 303, secondary 15): 15.1% | Phonophobia @ 2hours (Study 303, secondary 16, freedom from phonophobia): 41.7% | SP Freedom 2 to 48 hours (Study 303, secondary 17): 13.5% | Pain Relief at 60 minutes (Study 303, secondary 18): 36.8% | Functional Disability at 60 minutes (Study 303, secondary 19): 22.3% | Nausea @ 2 hours (Study 303, secondary 20, freedom from nausea): 51.0% | Pain Relpase 2 to 48 (Study 303, secondary 21): 36.6% | Freedom from MBS at 2 hours [2]: 35.1% | Pain Freedom at 2 hours [2]: 21.2% | clinical benefit through 48 hours on pain relief, pain freedom, most bothersome symptom, functional disability (Study 303, single dose, versus placebo): Lasting clinical benefit
